The IC50 is the concentration needed to halve the response being measured.

SMILES strings stand for the structures. Several values for one entry are separate records, joined by “and”; a condition that tells them apart may be missing. Equal values may be shown once.

The target in one assay is T1, SOAT (Homo sapiens, UniProt Q3KNW5).
T1 construct: stably transfected with the full open reading frames of human NTCP, ASBT, SOAT, OATP1B1, OATP1B3, OATP2B1, and murine Asbt (mAsbt); expressed in transfected cells; host or cells: HEK293 (Flp-In), stably transfected, tetracycline-induced
T1 sequence (Q3KNW5 1-377): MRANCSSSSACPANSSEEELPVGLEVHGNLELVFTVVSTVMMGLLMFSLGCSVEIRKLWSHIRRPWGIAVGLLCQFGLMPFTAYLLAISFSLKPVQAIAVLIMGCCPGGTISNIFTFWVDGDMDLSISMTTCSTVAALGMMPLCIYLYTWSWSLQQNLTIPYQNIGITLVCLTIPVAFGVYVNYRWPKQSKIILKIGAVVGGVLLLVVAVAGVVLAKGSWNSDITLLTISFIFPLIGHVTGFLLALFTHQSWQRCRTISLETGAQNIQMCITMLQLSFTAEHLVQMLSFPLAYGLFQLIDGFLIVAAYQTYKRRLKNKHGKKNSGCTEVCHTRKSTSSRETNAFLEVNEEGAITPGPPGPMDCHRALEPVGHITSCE
The assay can be described thus: [3H]DHEAS transport inhibition assay in SOAT-HEK293 cells. It counts as cell-based. The note with it: 1 μM [3H]DHEAS; for IC50: 10 min, SOAT-HEK293, two independent experiments. The source says:
(§1) Human embryonic kidney HEK293 cells, stably transfected with the full open reading frames of human NTCP, ASBT, SOAT, OATP1B1, OATP1B3, OATP2B1, and murine Asbt (mAsbt) were used as reported ([18], [20], [21], [22], [23]). The NTCP, ASBT, and mAsbt constructs were C-terminally tagged with the FLAG epitope, and the SOAT construct was C-terminally tagged with green fluorescent protein. Non-transfected Flp-In HEK293 cells (Thermo Fisher Scientific) served as the control. All cell lines were maintained at 37°C, 5% CO2 and 95% humidity in DMEM/F-12 medium (Thermo Fisher Scientific) supplemented with 10% fetal calf serum (Sigma-Aldrich), 4 mM L-glutamine (PAA) and penicillin/streptomycin (PAA). Expression of the respective carrier protein was induced by tetracycline treatment at 1 μg/ml (Carl Roth GmbH + Co. KG).
(§2) Cells were seeded onto poly-L-lysine-coated 96-well plates, induced with 1 μg/ml tetracycline, and grown to confluence over 72 h at 37°C. Then, cells were washed with tempered (37°C) phosphate-buffered saline (PBS, containing 137.0 mM NaCl, 2.7 mM KCl, 1.5 mM KH2PO4, and 7.3 mM Na2HPO4, at pH 7.4) and preincubated with 80 μl sodium transport buffer (STB, containing 142.9 mM NaCl, 4.7 mM KCl, 1.2 mM MgSO4, 1.2 mM KH2PO4, 1.8 mM CaCl2, and 20.0 mM HEPES, at pH 7.4) for 5 min at 37°C. For inhibition studies, the medium was replaced by 80 μl STB containing the respective inhibitor or solvent alone and cells were further incubated for 5 min at 37°C. Transport experiments were started by adding 20 μl of a 5-fold concentrated substrate solution (solved in STB). For transport experiments under sodium-free conditions the same buffer composition was used as for STB, but sodium chloride was substituted with equimolar concentrations of choline chloride as previously reported ([20], [24]). Transport experiments were stopped by washing twice with ice-cold PBS and the plates were kept cool on ice until adding the lysis buffer [1% sodium dodecyl sulfate (SDS) and 1 N NaOH]. Then, the cell-associated radioactivity of the respective tritium-labeled substrate or ligand was quantified by liquid scintillation counting using MicroScint-20 scintillation cocktail (Revvity) in a Packard Microplate Scintillation Counter TopCount NXT (Packard Instrument Company). For IC50 transport inhibition measurements, the mean uptake values measured in non-carrier-expressing HEK293 control cells were defined as 0% uptake control and were subtracted from all other values. Values from cells without inhibitor and solvent alone were set to 100%. Finally, all net transport data were expressed as uptake or binding as % of control. All transport or inhibition graphs were generated with GraphPad Prism 6 (GraphPad). Determination of half maximal inhibitory concentrations (IC50) was done by nonlinear regression analysis using the equation log (inhibitor) versus response—variable slope settings. All data points of the IC50 curves represent means ± SD of quadruplicate determinations. For Km measurements, BS uptake in the absence of sodium was regarded as carrier-independent unspecific uptake and was subtracted from the transport rates in the presence of sodium to obtain carrier-specific uptake rates (indicated as dashed lines). From the specific uptake rates, Michaelis Menten Km values were calculated by non-linear regression analysis.

The next assay deals with T2, OATP1B3 (Homo sapiens, UniProt Q9NPD5).
T2 construct: stably transfected with the full open reading frames of human NTCP, ASBT, SOAT, OATP1B1, OATP1B3, OATP2B1, and murine Asbt (mAsbt); expressed in transfected cells; host or cells: HEK293, stably transfected (OATP1B3-HEK), tetracycline-induced
T2 sequence (Q9NPD5 1-702): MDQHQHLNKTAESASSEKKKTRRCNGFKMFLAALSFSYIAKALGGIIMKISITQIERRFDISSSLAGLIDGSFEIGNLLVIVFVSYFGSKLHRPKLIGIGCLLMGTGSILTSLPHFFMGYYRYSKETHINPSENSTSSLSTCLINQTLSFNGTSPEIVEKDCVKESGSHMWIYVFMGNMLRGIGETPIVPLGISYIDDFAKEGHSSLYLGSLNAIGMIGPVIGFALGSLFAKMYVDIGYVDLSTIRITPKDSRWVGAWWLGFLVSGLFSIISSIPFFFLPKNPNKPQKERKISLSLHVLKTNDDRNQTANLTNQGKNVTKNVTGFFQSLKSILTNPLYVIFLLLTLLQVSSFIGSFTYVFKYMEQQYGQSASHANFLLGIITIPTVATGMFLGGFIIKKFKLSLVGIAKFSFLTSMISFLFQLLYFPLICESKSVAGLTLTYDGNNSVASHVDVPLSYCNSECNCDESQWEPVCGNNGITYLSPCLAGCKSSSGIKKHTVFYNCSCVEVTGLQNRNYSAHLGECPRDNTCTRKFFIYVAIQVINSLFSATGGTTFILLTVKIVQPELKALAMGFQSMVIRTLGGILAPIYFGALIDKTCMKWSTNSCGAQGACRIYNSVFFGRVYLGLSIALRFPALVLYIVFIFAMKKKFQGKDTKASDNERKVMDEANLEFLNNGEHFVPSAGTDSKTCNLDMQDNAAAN
The assay can be described thus: [3H]BSP transport inhibition assay in OATP1B3-HEK293 cells. The note with it: 1 μM [3H]BSP, 10 min; two independent experiments. The class given is cell-based.
Excerpt: as §1, §2

On to `CCCCC1(CCCC)CS(=O)(=O)c2ccc(N(C)C)cc2[C@@H](c2ccc(OCCCC[N+]34CCN(CC3)CC4)cc2)[C@H]1O` [SC-435], for which the IC50 against SOAT is 8.6 µM and 13.5 µM; on OATP1B3, 2 to 8 µM and 7.8 µM and 5.1 µM.

For `CCCCC1(CCCC)CN(c2ccccc2)c2cc(SC)c(OCC(=O)N[C@@H](C(=O)NCC(=O)O)c3ccccc3)cc2S(=O)(=O)C1` [elobixibat], the IC50 was 3.2 µM and 3.3 µM on SOAT; 4.8 µM and 4.2 µM at OATP1B3.

For `CCCC[C@]1(CC)CS(=O)(=O)c2cc(CNC(CC(=O)O)CC(=O)O)c(OC)cc2[C@@H](c2ccccc2)N1` [linerixibat], the “SOAT inhibition (in words)” value on SOAT (inhibitor up to 100 μM) was “failed to significantly inhibit SOAT”. Also, on OATP1B3, the IC50 is 2 to 8 µM and 3.6 µM and 2.2 µM.

As to `CCCCC1(CCCC)CS(=O)(=O)c2ccc(N(C)C)cc2[C@@H](c2ccc(OCc3ccc(C[N+]45CCN(CC4)CC5)cc3)cc2)[C@H]1O` [maralixibat], the IC50 at SOAT is 4.5 µM and 5.9 µM; on OATP1B3, 5.5 µM and 5.2 µM.

With `CCCCC1(CCCC)CN(c2ccccc2)c2cc(SC)c(OCC(=O)N[C@@H](C(=O)N[C@@H](CC)C(=O)O)c3ccc(O)cc3)cc2S(=O)(=O)N1` [odevixibat], the IC50 is 5.5 µM and 5.6 µM against SOAT; 5.1 µM and 4.3 µM against OATP1B3.

The values are drawn from publication PMC12596218 (Journal of Lipid Research, 2025).
